Laboratory results as given in US6844429B2, “Fullerene derivative and composition comprising the same” (San-Ei Gen F.F.I., priority 2001, dated 2005).
Values belong to the compound of their own block, whether it stands above or below them.

Assays:
[1] = Quantum yield measurement of singlet oxygen (DPBF absorbance decay under light irradiation); type: physicochemical; settings: singlet oxygen quantum yield relative to tetraphenylporphyrin; DMSO, 27° C., 6.5×10^−7 M fullerene derivative, DPBF absorbance at 418 nm
Experimental: A DMSO solution containing 5.5×10^−5 M of 1,3-diphenylisobenzofuran (DPBF) was prepared, maintaining the water temperature in a waterbath at 27° C. 3 mL of the DMSO solution was poured into a quartz cell and a DMSO solution containing 1.5×10^−5 M of fullerene derivatives was added so that the concentration of the resulting solution is set to 6.5×10^−7 M. Subsequently, oxygen was bubbled through the solution for one minute or more. The cell was set in position within the waterbath, stirred using a multistirrer and irradiated with light every ten seconds to measure the absorbance of the DPBF at 418 nm. Natural logarithm of the absorbance thus measured was plotted against time of light irradiation to find the gradient. Thus, a relative scale with respect to the quantum yield of tetraphenylporphyrin (φ^1O2) was calculated.

HeLa cells = assay: Phototoxicity test: viability of HeLa cells by MTT assay, without and with light irradiation; type: cell-based
Experimental: The cytotoxicity of (Mal-(CH2)2—N)C60 (hereafter, referred to as Compound A) obtained in Example 12 was evaluated by the viability of HeLa cells using an MTT assay (Carmichal, J., W. G. DeGraff, A. F.Gazdar, J. D. Minna and J. B. Mitchell, Cancer Res., 1987, 47, 936-942). HeLa cells (5×10^3 cells/well) were incubated in a Dulbecco's modified Eagle's medium (DMEM) containing 10% fetal bovine serum (FBS) on a 96-well plate in 5% CO2 at 37° C. for 24 hours. After washing with phosphate buffered saline (PBS), 100 μl of (Mal-(CH2)2—N) C60 (DMEM) (−) solution (25 μM) as a fullerene derivative of the present invention was added to the cells, which were incubated for two hours. The cells were washed with PBS, replaced with 100 μl of DMEM(+) and theie viability was measured using the MTT assay. The viability was determined by measuring the absorbance at 570 nm (OD570). […] The ratio was calculated by the following formula: Cell survival ratio (%)=(OD 570 in the presence of Compound A/OD 570 in the absence of Compound A)×100. A cell survival ratio of 100% means the absence of cytotoxicity.
HeLa cells (5×10^3 cells/well) were treated in the same the manner as in the above. Compound A was added to the cells and the resulting cell was irradiated with a 500 W halogen lamp for 8 minutes. After 24 hours' incubation, the supernatant was removed and formazan was dissolved in 100 μl of DMSO. Thereafter, the viability was determined by measuring the absorbance at 570 nm (OD570). […] The ratio was calculated by the following formula: Cell survival ratio (%)=(OD 570 in the presence of Compound A with irradiation/OD 570 in the absence of Compound A with irradiation)×100.
Evaluations were made in the same manner as in Test Example 2 except that each of (Mal-(CH2)2—N)C60 (Compound A) obtained in Example 12 and (D-Xyl-(CH2)2—N)C60(hereafter, referred to as Compound B) obtained in Example 14 was used in amounts 1, 5, 10, 25 and […]. The obtained results of the cytotoxicities of Compounds A and B are shown in FIGS. 2 and 3, respectively.

Compound: N,N′-bis[2-(β-D-xylopyranosyloxy)ethyl] [5,6]-diazafulleroid [(D-Xyl-(CH2)2—N)2C60]
- Relative scale for φ^1O2 [1]: 0.3

Compound: N-[2-(2,3,4,6-tetra-O-acetyl-β-D-glucopyranosyloxy)ethyl][5,6]-azafulleroid [(D-AcGlc-(CH2)2—N)C60]
- Relative scale for φ^1O2 [1]: 0.6

- Relative scale for φ^1O2 [1]: 0.7
Compound: N, N′-bis [2-(2,3,4,6-tetra-O-acetyl-α-D-mannopyranosyloxy)ethyl] [5,6]-diazafulleroid [(D-AcMan-(CH2)2—N)2C60]

Compound: OCC1OC(OCCn2c3c4c5c6c7c8c9c%10c%11c%12c%13c%10c%10c8c8c%14c%10c%10c%13c%13c%15c%12c%12c%16c%11c%11c9c7c7c9c%11c%16c%11c%16c%12c%15c%12c%15c%13c%10c%10c%14c(c4c86)c4c%10c%15c6c%12c%16c8c%11c9c(c75)c3c8c6c42)C(O)C(O)C1O [(D-Gal-(CH2)2—N)C60, N-[2-(β-D-galactopyranosyloxy)ethyl][5,6]-azafulleroid]
- Relative scale for φ^1O2 [1]: 0.7

Compound: N-[2-(2,3,4-tri-O-acetyl-β-D-xylopyranosyloxy)ethyl] [5,6]-azafulleroid [(D-AcXyl-(CH2)2—N)C60]
- Relative scale for φ^1O2 [1]: 0.4

Compound: N-[2-(2,3,4,6-tetra-O-acetyl-α-D-mannopyranosyloxy)ethyl] [5,6]-azafulleroid [(D-AcMan-(CH2)2—N)C60]
- Relative scale for φ^1O2 [1]: 0.8

Compound: N-[2-(α-D-mannopyranosyloxy)ethyl] [5,6]-azafulleroid [(D-Man-(CH2—N)C60]
- Relative scale for φ^1O2 [1]: 0.5

Compound: N-[2-(2,3,6,8,9,13-hepta-O-acetyl-β-(α-D-glucopyranosyl (1-4)-D-glucopyranosyloxy)ethyl) [5,6]-azafulleroid [(AcMal-(CH2)2—N)C60]
- Relative scale for φ^1O2 [1]: 0.7

Compound: N, N′-bis[2-(2,3,6,8,9,13-hepta-O-acetyl-β-(α-D-glucopyranosyl (1-4)-D-glucopyranosyloxy)ethyl) [5,6]-diazafulleroid [(AcMal-(CH2)2—N)2C60]
- Relative scale for φ^1O2 [1]: 0.6

Compound: N,N′-bis[2-(α-D-mannopyranosyloxy)ethyl] [5,6]-diazafulleroid [(D-Man-(CH2)2—N)2C60]
- Relative scale for φ^1O2 [1]: 0.5

Compound: N-[2-(β-(α-D-glucopyranosyl(1-4)-D-glucopyranosyloxy)ethyl) [5,6]-azafulleroid [(Mal-(CH2)2—N)C60]
- Relative scale for φ^1O2 [1]: 0.7
- toxicity, share of the cells (photocytotoxicity) (HeLa cells; 10 μM, light irradiation as in Test Example 2, FIG. 2): about 50%
- cytotoxicity (cell survival ratio) with light irradiation (HeLa cells; 25 μM, 500 W halogen lamp for 8 minutes, 24 hours' incubation, MTT OD570, FIG. 1): cytotoxicity is observed
- cytotoxicity (cell survival ratio) without light irradiation (HeLa cells; 25 μM, two hours incubation, no light irradiation, MTT OD570, FIG. 1): cytotoxicity is not observed

Compound: N, N′-bis[2-(β-D-glucopyranosyloxy)ethyl][5,6]-diazafulleroid [(D-Glc-(CH2)2—N)2C60]
- Relative scale for φ^1O2 [1]: 0.6

- Relative scale for φ^1O2 [1]: 0.5
Compound: N, Nα-bis[2-(2,3,4,6-tetra-O-acetyl-β-D-glucopyranosyloxy)ethyl] [5,6]-diazafulleroid [(D-AcGlc-(CH2)2—N)2C60]

Compound: N-[2-(β-D-glucopyranosyloxy)ethyl] [5,6]-azafulleroid [(D-Glc-(CH2)2—N)C60]
- Relative scale for φ^1O2 [1]: 0.6

- Relative scale for φ^1O2 [1]: 0.5
Compound: N, N′-bis[2-(2,3,4,6-tetra-O-acetyl-β-D-galactopyranosyloxy)ethyl] [5,6]-diazafulleroid [(D-AcGal-(CH2)2—N)2C60]

Compound: N,N′-bis[2-(β-(α-D-glucopyranosyl(1-4)-D-glucopyranosyloxy)ethyl) [5,6]-diazafulleroid [(Mal-(CH2)2—N)2C60]
- Relative scale for φ^1O2 [1]: 0.8

Compound: N,Nα-bis[2-(2,3,4-tri-O-acetyl-β-D-xylopyranosyloxy)ethyl] [5,6]-diazafulleroid [(D-AcXyl-(CH2)2—N)2C60]
- Relative scale for φ^1O2 [1]: 0.3

Compound: OC1COC(OCCn2c3c4c5c6c7c8c9c%10c%11c%12c%13c%10c%10c8c8c%14c%10c%10c%13c%13c%15c%12c%12c%16c%11c%11c9c7c7c9c%11c%16c%11c%16c%12c%15c%12c%15c%13c%10c%10c%14c(c4c86)c4c%10c%15c6c%12c%16c8c%11c9c(c75)c3c8c6c42)C(O)C1O [(D-Xyl-(CH2)2—N)C60, N-[2-(β-D-xylopyranosyloxy)ethyl][5,6]-azafulleroid]
- Relative scale for φ^1O2 [1]: 0.3

Compound: N,N′-bis[2-(β-D-galactopyranosyloxy)ethyl] [5,6]-diazafulleroid [(D-Gal-(CH2)2—N)2C60]
- Relative scale for φ^1O2 [1]: 0.7

Compound: N-[2-(2,3,4,6-tetra-O-acetyl-β-D-galactopyranosyloxy)ethyl] [5,6]-azafulleroid [(D-AcGal-(CH2)2—N)C60]
- Relative scale for φ^1O2 [1]: 0.7
